The values that follow come from PubChem BioAssay (NCI).

SMILES strings stand for the structures.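 In this assay, cells in 96-well plates receive the compound at five concentrations for 48 hours. Endpoints are linearly interpolated between the surrounding concentrations. Abbreviation: GI50, concentration required for 50% inhibition of growth. TGI: total growth inhibition.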 A value given as a limit tells only on which side of the number the result lay.

Among the test systems are HOP-62 NSCLC; HL-60(TB) leukemia; MALME-3M melanoma; SNB-78 CNS; SK-MEL-2 melanoma; A549 NSCLC; HT29 colon; CAKI-1 renal; DMS 114 small cell lung; HOP-18 NSCLC.
Holding throughout (experiment): DTP human tumour cell line panel, 48 h

As to `CCc1oc2ccc(OC)c3c2c1C=CC=C3`, the TGI in the assay with HOP-62 NSCLC, in the assay on HL-60(TB) leukemia, with MALME-3M melanoma, with SNB-78 CNS, with SK-MEL-2 melanoma and in the assay on A549 NSCLC was above 100 µM each time. Further, the TGI (commonly the concentration at which net growth stops) with HT29 colon is above 100 µM.

For the compound `COC(=O)C(=O)C1CCCCC(C2=NC3NN=C(N)N3C2=O)C1=O` (stereo not given), the TGI with HOP-62 NSCLC, in the assay with HL-60(TB) leukemia, with MALME-3M melanoma, with SK-MEL-2 melanoma, in the assay with CAKI-1 renal and with DMS 114 small cell lung was above 100 µM each time. The TGI in the assay with HOP-18 NSCLC, in the assay with A549 NSCLC and with HT29 colon was above 100 µM throughout.

For `O=C1CCC(=O)C(C(=O)CCC(=O)Nc2cccc(Cl)c2)C1` (stereo not given), the TGI with HOP-62 NSCLC, with HL-60(TB) leukemia, with MALME-3M melanoma, in the assay with CAKI-1 renal, with HOP-18 NSCLC and in the assay with A549 NSCLC was above 100 µM in each case. Further, in the assay on HT29 colon, the TGI was above 100 µM.

For `CO[C@@]12CC(=O)/C(=C(O)\C=C\c3ccccc3)C(=O)[C@]1(OC)Cc1ccccc1O2`, the total growth inhibition concentration (TGI) is 51.7 µM with HOP-62 NSCLC; above 100 µM in the assay with MALME-3M melanoma; above 100 µM in the assay with SNB-78 CNS; above 100 µM with SK-MEL-2 melanoma; above 100 µM in the assay with DMS 114 small cell lung; above 100 µM in the assay with HOP-18 NSCLC. Moreover, the figures for the TGI in the assay with A549 NSCLC and in the assay on HT29 colon were 88.8 µM and above 100 µM, respectively.

Regarding `Cc1cccc(N=C2NC(=O)C(CC(=O)Nc3ccc(Cl)cc3C)S2)c1` (stereo not given), the TGI in the assay on HOP-62 NSCLC, in the assay with HL-60(TB) leukemia, in the assay with MALME-3M melanoma, in the assay on SK-MEL-2 melanoma, in the assay on CAKI-1 renal and with DMS 114 small cell lung was above 100 µM throughout. For the same compound, the TGI in the assay with HOP-18 NSCLC, in the assay on A549 NSCLC and with HT29 colon was above 100 µM each time.

On to `CC(C)[O-].CC(C)[O-].[O-]c1cccc2cccnc12.[O-]c1cccc2cccnc12.[Ti+4]`, for which the GI50 (in general, the concentration giving 50% growth inhibition) with HOP-62 NSCLC was above 100 µM; in the assay on HL-60(TB) leukemia, 2.24 µM; in the assay on MALME-3M melanoma, 25.7 µM; with SK-MEL-2 melanoma it was 31.3 µM; in the assay on A549 NSCLC, 41.7 µM. For the same compound, the TGI in the assay on HOP-62 NSCLC, in the assay with MALME-3M melanoma, in the assay on SK-MEL-2 melanoma, in the assay on CAKI-1 renal, with HOP-18 NSCLC and with A549 NSCLC was above 100 µM each time.

With `O=C1C2Nc3ccccc3SC2C(=O)N1c1cccc([N+](=O)[O-])c1` (stereo not given), the TGI in the assay with HOP-62 NSCLC, with HL-60(TB) leukemia, in the assay with MALME-3M melanoma, with SNB-78 CNS, in the assay with SK-MEL-2 melanoma and in the assay on CAKI-1 renal was above 100 µM in each case. The TGI with DMS 114 small cell lung, with A549 NSCLC and with HT29 colon was above 100 µM in each case.

As to `COC(=O)C1=Cc2c(OC)cc(OC)c(OC)c2[C@H](c2cc(OC)c(OC)cc2OC)C1C(=O)OC` (stereo not given in full), the TGI in the assay with HOP-62 NSCLC, with HL-60(TB) leukemia, in the assay with MALME-3M melanoma, with SNB-78 CNS, in the assay on CAKI-1 renal and in the assay with DMS 114 small cell lung was above 100 µM throughout. Also, the TGI in the assay with A549 NSCLC and in the assay on HT29 colon was above 100 µM throughout.

`C=C=[CH][Sn]([c]1ccccc1)([c]1ccccc1)[c]1ccccc1`: the GI50 is 2.45 µM in the assay with HOP-62 NSCLC; 1.78 µM with HL-60(TB) leukemia; 1.74 µM in the assay on MALME-3M melanoma; 3.1 µM in the assay on SNB-78 CNS; 1.84 µM in the assay on SK-MEL-2 melanoma; 1.74 µM with CAKI-1 renal. The values for the GI50 in the assay with DMS 114 small cell lung, in the assay on A549 NSCLC and in the assay on HT29 colon were 1.52 µM, 1.91 µM and 1.21 µM, respectively. Also, the TGI with HOP-62 NSCLC is 5.26 µM; in the assay with HL-60(TB) leukemia, 4.57 µM; in the assay with MALME-3M melanoma, 3.57 µM; in the assay with SNB-78 CNS, 9.29 µM; with SK-MEL-2 melanoma, 3.71 µM; in the assay with CAKI-1 renal it was 4.29 µM. In addition, the TGI was found to be 2.94 µM in the assay with DMS 114 small cell lung, 4.42 µM with A549 NSCLC and 2.45 µM in the assay on HT29 colon.

Turning to `CC(C)c1cccc(C(C)C)c1NC1=CC(=O)C(=O)c2ccccc21`, the TGI in the assay with HOP-62 NSCLC, with HL-60(TB) leukemia, in the assay with MALME-3M melanoma, in the assay with SNB-78 CNS, in the assay on SK-MEL-2 melanoma and with CAKI-1 renal was above 100 µM each time. Moreover, the TGI in the assay on HOP-18 NSCLC, in the assay on A549 NSCLC and in the assay on HT29 colon was above 100 µM throughout.

Take `Cc1cc(=O)[nH]c(CNC(=O)Cc2ccccc2)n1`: the TGI with HOP-62 NSCLC, in the assay on HL-60(TB) leukemia, with MALME-3M melanoma, in the assay on SNB-78 CNS, in the assay with SK-MEL-2 melanoma and in the assay on CAKI-1 renal was above 100 µM throughout. For the same compound, the TGI in the assay with DMS 114 small cell lung, in the assay with A549 NSCLC and in the assay on HT29 colon was above 100 µM each time.

Take `NNC(=S)N/N=C/C(Cl)=C(\Cl)C(=O)O`: the total growth inhibition concentration (TGI) with HL-60(TB) leukemia, in the assay on MALME-3M melanoma, in the assay with SNB-78 CNS, with SK-MEL-2 melanoma, in the assay on CAKI-1 renal and with DMS 114 small cell lung was above 100 µM throughout. Besides, the TGI in the assay with A549 NSCLC and with HT29 colon was above 100 µM in each case.

On to `Cc1cc(C)c2[s+]snc2c1`, for which the TGI was above 100 µM with HOP-62 NSCLC; 44.7 µM in the assay with HL-60(TB) leukemia; above 100 µM in the assay on MALME-3M melanoma; above 100 µM in the assay with SNB-78 CNS; above 100 µM in the assay on SK-MEL-2 melanoma; above 100 µM in the assay with CAKI-1 renal. In addition, the TGI in the assay with HOP-18 NSCLC, in the assay on A549 NSCLC and with HT29 colon was above 100 µM each time.

In the case of `COC(=O)Nc1nc2ccc(Sc3ccccc3)cc2[nH]1`, the GI50 in the assay with HOP-62 NSCLC is 0.277 µM; in the assay on HL-60(TB) leukemia, 0.0805 µM; in the assay with MALME-3M melanoma it was 0.444 µM; in the assay on SK-MEL-2 melanoma it was 0.162 µM; with CAKI-1 renal, 0.225 µM; in the assay on A549 NSCLC, 0.208 µM. Moreover, the GI50 with HT29 colon was 0.0494 µM. Also, the TGI with HOP-62 NSCLC is 4.23 µM; in the assay with HL-60(TB) leukemia it was 0.455 µM; in the assay with MALME-3M melanoma it was 18.8 µM; with SK-MEL-2 melanoma it was 2.88 µM; with CAKI-1 renal, above 43.5 µM; in the assay with A549 NSCLC, 5.96 µM. The TGI in the assay with HT29 colon came to 1.29 µM.
